Data set [1] in a line: Safety and tolerability in healthy subjects (Phase 1 BAL study). The data set is classed as in vivo, human. On the procedure:
(§1) This was a Phase 1, single-center, multiple-dose, open-label PK study in healthy adult male and female subjects. Subjects received three 100 mg doses of SPR206 administered q8h as a 1-h IV infusion. Three consecutive doses were sufficient to achieve steady-state based on a previous Phase 1 study in healthy subjects ([36]). A screening evaluation to determine eligibility for enrollment into the study was performed within 28 days of initial dosing. Subjects who met inclusion and exclusion criteria returned to the study unit 1 day before dosing (Day -1). Subjects who met inclusion and exclusion criteria were confined to the study site from Day -1 (1 day prior to start of dosing) and remained in the study site through completion of all scheduled procedures including collection of the last PK sample and bronchoscopy procedures along with safety evaluations (Day 2). Each subject underwent 1 bronchoscopy with BAL at 2, 3, 4, 6, or 8 h after the start of the third IV infusion. Subjects were required to return for a follow-up visit on Day 7 (+2 days) after discharge from the study site. The maximum duration of participation for each subject was up to 39 days (up to 28 days for Screening, 2 days of confinement, and up to 9 days for follow-up).
Subjects were continuously monitored during the bronchoscopy. Vital signs (blood pressure, heart rate, and respiratory rate) were recorded prior to the scheduled bronchoscopy time and at 15 min and 1 h following the end of bronchoscopy. Subjects were kept under observation for 2 to 3 h post-bronchoscopy for safety evaluations. Continuous pulse oximetry was conducted from the beginning of preparation of the subject for bronchoscopy until the post-procedure oxygen saturation was at least 93% on room air. Pulse oximetry was extended if a clinically significant increase in heart rate or cardiac rhythm abnormalities were detected. Other safety assessments included physical examinations, clinical laboratory monitoring (hematology, blood chemistry, and urinalysis), 12-lead ECG, and adverse event recording.

A short description of data set [2]: Epithelial lining fluid (ELF) pharmacokinetics of SPR206 by bronchoscopy with BAL, urea dilution method. The data set is classed as in vivo, human. The protocol:
as §1
Subjects were assigned to 1 of 5 bronchoscopy sampling times at 2, 3, 4, 6, or 8 (± 10 min) after the third IV infusion of SPR206. Each subject underwent 1 standardized bronchoscopy and BAL on Day 2 at the assigned time. A blood sample to determine plasma concentrations of SPR206 and urea was obtained during the bronchoscopy procedure at each BAL sampling time (approximating the time of collection of a second aspirate of BAL). Detail descriptions of the outpatient bronchoscopy, BAL procedures, and the handling, processing, and storage of samples have been previously described ([58][–][60]).
The concentrations of SPR206 in BAL and in cell pellets were determined by Keystone Bioanalytical, Inc. using a validated LC-MS/MS method. ELF concentrations were calculated by the urea dilution method ([61], [62]). AM concentrations were determined from cell pellet drug concentrations, cell count in BAL fluid, and macrophage cell volume ([62]). The calibration curves for SPR206 were linear over a range from 2 to 1,000 ng/mL. The inter-assay precision (%CV) and accuracy (%RE) for SPR206 were 2.81% to 15.84% and -4.02% to 1.51%, respectively. The intra-assay precision (%CV) and accuracy (%RE) for SPR206 were 1.43% to 18.59% and -17.44% to 6.28%, respectively.
The concentration of urea in plasma and BAL fluid supernatants was determined using a validated LC/MS/MS method from Keystone Bioanalytical, Inc. Thirty human plasma and 30 BAL fluid samples were assayed for urea concentrations. A total of 10 samples for both plasma and BAL fluid (33.3%) were selected for testing, and the calculated assay variability was within 20%. The calibration curve for the urea assay in plasma was linear over the range from 100 to 3,000 μg/mL. The inter-assay precision (%CV) and accuracy (%RE) for SPR206 were 1.98% to 3.37% and -8.17% to 4.13%, respectively. The intra-assay precision (%CV) and accuracy (%RE) for SPR206 were 0.56% to 5.60% and -10.21% to 8.54%, respectively. The calibration range of the urea assay for BAL fluid was linear (r^2 > 0.998) over the range of 0.2 to 10 μg/mL. The inter-assay precision (%CV) and accuracy (%RE) for SPR206 were 6.40% to 9.77% and -3.22% to 1.47%, respectively. The intra-assay precision (%CV) and accuracy (%RE) for SPR206 were 0.96% to 12.08% and -11.30% to 9.15%, respectively.
Actual BAL samples were collected outside the protocol-specified sampling time windows. Thus, an updated method was utilized where the PK parameters for ELF or AM were calculated from composite concentration profiles of ELF or AM, respectively, based on the 27 subjects in the BAL PK population. […]

In the next data set the test system is kidney cell. The note with it: cited from earlier work.
The conditions of data set [3]: cited from earlier work.
Where [4] appears, read: both sexes, human, in vivo, iv, 100 mg.

The structures appear in SMILES notation. Where a SMILES comes first, the peptide text is derived from it. Bridges are numbered along the chain shown (N, C = ends). [ ]: non-standard residue; d: D form. The star is where a group is joined. X1 = NC[C@@H](CC(=O)*)c1cccc(Cl)c1; Dab = NCC[C@H](N)C(=O)O; Dap = NC[C@H](N)C(=O)O

What is called AUC(0-t) is the area under the concentration-time curve up to a stated or last time point. Lower therefore signals low exposure. For orientation: Cmax means the highest concentration seen after dosing. For orientation: Tmax means the time at which the peak concentration occurs.

For `CC(C)C[C@@H]1NC(=O)[C@@H](Cc2ccccc2)NC(=O)[C@H](CCN)NC(=O)[C@@H](NC(=O)[C@H](CN)NC(=O)[C@@H](NC(=O)C[C@H](CN)c2cccc(Cl)c2)[C@@H](C)O)CCNC(=O)[C@H]([C@@H](C)O)NC(=O)[C@H](CCN)NC(=O)[C@H](CCN)NC1=O` [SPR206] (X1-T[Dap][Dab][Dab][dF]L[Dab][Dab]T; lactam 3-C (inferred)), the “Deaths, serious AEs, AEs leading to discontinuation” value in data set [1] (100 mg IV q8h x 3 doses) was “No deaths, serious AEs, or AEs leading to study drug discontinuation or study discontinuation were reported”. Also, the “TEAEs reported as mild in severity (of 40 reported TEAEs)” value in data set [1] (human, in vivo, iv) came out at 85.0%. Moreover, in data set [1] (human, in vivo, iv, 100 mg), the “Clinical laboratory parameters including blood urea nitrogen, serum creatinine, estimated creatinine clearance” value is on record as “No clinically significant abnormalities”. Moreover, the “Ratio ELF to total plasma concentration, arithmetic mean ± SD” value was determined as 0.183 ± 0.032 in data set [2] (BAL sampling time 2 hours post-dose); 0.199 ± 0.066 in data set [2] (BAL sampling time 3 hours post-dose); 0.190 ± 0.067 in data set [2] (BAL sampling time 4 hours post-dose); 0.428 ± 0.176 in data set [2] (BAL sampling time 6 hours post-dose); 0.347 ± 0.138 in data set [2] (BAL sampling time 8 hours post-dose). For the same compound, the “Ratio ELF to unbound plasma concentration, arithmetic mean ± SD” value in data set [2] (BAL sampling time 2 hours post-dose, unbound fraction 0.914) is 0.200 ± 0.035; in data set [2] (BAL sampling time 3 hours post-dose, unbound fraction 0.914), 0.218 ± 0.072; in data set [2] (BAL sampling time 4 hours post-dose, unbound fraction 0.914), 0.208 ± 0.074; in data set [2] (BAL sampling time 6 hours post-dose, unbound fraction 0.914), 0.469 ± 0.192; in data set [2] (BAL sampling time 8 hours post-dose, unbound fraction 0.914) it was 0.380 ± 0.151. Also, the “Ratio of AUC0-8 of ELF to AUC0-8 of total plasma” value in data set [2] (after third 100 mg IV dose, plasma n = 34, ELF n = 27) turned out to be 0.242. Also, in data set [2] (after third 100 mg IV dose, plasma n = 34, ELF n = 27, unbound fraction 0.914), the “Ratio of AUC0-8 of ELF to AUC0-8 of unbound plasma” value is given as 0.264. Also, the area under the curve AUC(0-t) in data set [2] (setting [4]) is 4860 ng·h/mL. The peak level in data set [2] (setting [4]) (Cmax) was 736 ng/mL. Besides, the time to peak (Tmax) in data set [2] (setting [4]) is 2.2 h. The Kidney cell cytotoxicity result in the data set on kidney cell is “reduced kidney cell cytotoxicity”. The “Unbound fraction in plasma” value in data set [3] is reported as 0.914.

(Values after article PMC10353446, “Pharmacokinetics of SPR206 in Plasma, Pulmonary Epithelial Lining Fluid, and Alveolar Macrophages following Intravenous Administration to Healthy Adult Subjects” (Antimicrobial Agents and Chemotherapy, 2023).)
